{"source": "patent US10166202B2", "about": "“Treatment of hepatic encephalopathy and liver cirrhosis” (Yissum Research Development Company of the Hebrew …, priority 2006, dated 2019)", "key": {"[1]": {"test_system": "TAA treated mice", "settings": "mouse, in vivo"}, "[2]": {"test_system": "BDL mice", "experiment": "Cognitive function in chronic liver failure induced by bile duct ligation (BDL)", "format": "in vivo", "settings": "BDL mice relative to sham; cannabidiol 5 mg/kg i.p. daily, evaluated 2 weeks post-surgery"}, "[3]": {"test_system": "BDL mice", "experiment": "Motor function in chronic liver failure induced by bile duct ligation (BDL)", "format": "in vivo", "settings": "BDL mice relative to sham; cannabidiol 5 mg/kg i.p. daily, evaluated 2 weeks post-surgery"}, "[4]": {"test_system": "TAA treated mice", "experiment": "Liver function analysis of blood plasma in TAA treated mice", "format": "in vivo"}, "[5]": {"test_system": "TAA treated CB2-KO mice", "experiment": "Blood ALT and AST levels in TAA treated CB2-KO mice", "format": "in vivo", "method": "(ii) Mice. Eight- to 10-week old female Sabra mice (29-32 g), obtained from the animal facility of the Hebrew University, Israel, were assigned at random to different groups of 10 mice per cage and were used in all experiments. All cages contained wood-chip bedding and were placed in a temperature-controlled room at 22° C., on a 12 h light/dark cycle (lights on at 07.00 a.m.). The mice had free access to water 24 h a day. The food provided was Purina chow, the animals were maintained in the animal facility (SPF unit) of the Hebrew University Hadassah Medical School, Jerusalem. CB-2 KO mice were provided by Prof. Zimmer, Institute of Molecular Psychiatry, University of Bonn, Germany.\n(xi) Liver function analysis. Ammonia, bilirubin, ALT, AST, GGT and glucose were analyzed using standard analytical methods in the Hadassah Hospital Biochemistry Department, Jerusalem, Israel."}, "[6]": {"test_system": "AMPK", "experiment": "Hippocampal AMPK phosphorylation (immunoblot) in TAA-induced liver failure mice", "format": "in vivo"}, "[7]": {"test_system": "dopamine", "experiment": "Brain catecholamine (dopamine) measurement by HPLC-ECD in TAA treated mice", "format": "in vivo", "method": "(vi) Catecholamine measurements. Catecholamines were measured as described previously (Avraham et al, 1996). The assay for dopamine was performed by High Pressure Liquid Chromatography (HPLC) separation and detection using HPLC-electrochemical detection (ECD). Values are presented as concentration (ng/g tissue)."}, "[8]": {"test_system": "glial cells", "parameters": "species or system mice", "settings": "mouse, in vivo"}, "[9]": {"test_system": "AMPK", "experiment": "Hippocampal AMPK phosphorylation (immunoblot) in control mice", "format": "in vivo", "settings": "for hippocampal AMPK phosphorylation (activated AMPK): control mice"}, "[10]": {"test_system": "TAA treated mice", "experiment": "Neurological score in TAA treated mice", "format": "in vivo"}, "[11]": {"test_system": "TAA treated mice", "experiment": "Eight-arm maze (cognitive function) in TAA treated mice", "format": "in vivo"}, "[12]": {"test_system": "TAA treated mice", "experiment": "Activity test in TAA treated mice", "format": "in vivo"}, "[13]": {"test_system": "CB1 and the CB2 receptors", "settings": "previously known; cited from earlier work"}, "[14]": {"test_system": "IL-1β mRNA", "experiment": "Hippocampal IL-1β mRNA level by RT-PCR in BDL mice", "format": "in vivo", "settings": "cannabidiol 5 mg/kg i.p. daily for 3 weeks"}, "[15]": {"test_system": "malondialdehyde", "experiment": "Oxidative stress (malondialdehyde) in liver tissue of BDL mice", "format": "in vivo", "settings": "cannabidiol 5 mg/kg i.p. daily"}}, "note": "“Also recorded” adds a separate entry of the source.", "data": [{"compound": "CCCCC/C=C\\C/C=C\\C/C=C\\C/C=C\\CCCC(=O)OC(CO)CO", "note": "[2-AG, 2-arachidonoylglycerol]", "values": [{"measurement": "Inflammation (frequency of cells in the liver)", "setting": "[1]", "value": "Decreased"}, {"measurement": "Regeneration (frequency of cells in the liver)", "setting": "[1]", "value": "Increased"}, {"measurement": "cognitive impairment (eight arm maze AUC)", "setting": "[2]", "value": "effectively reversed"}, {"measurement": "motor impairment (motor activity)", "setting": "[3]", "value": "failed to reverse"}, {"measurement": "alanine transaminase (ALT) level", "setting": "[4]; mouse, in vivo", "value": "significantly reduced"}, {"measurement": "aspartate aminotransferase (AST) level", "setting": "[4]; mouse, in vivo", "value": "significantly reduced"}, {"measurement": "influence of the co-administered agent on the other agent's reduction of ALT and AST levels", "setting": "[4]; mouse, in vivo", "value": "did not counteract the effect of SR141716A or SR144528"}, {"measurement": "ALT level", "setting": "[5]", "value": "modestly but significantly reduced"}, {"measurement": "AST level", "setting": "[5]", "value": "effective in reducing its level"}]}, {"compound": "NC(=O)c1ncn([C@@H]2O[C@H](CO)[C@@H](O)[C@H]2O)c1N", "note": "[AICAR, 5-aminoimidazole-4-carboxamide ribonucleoside]", "values": [{"measurement": "AMPK activation", "setting": "[6]; TAA treated mice, AICAR treatment", "value": "augmented AMPK activation"}, {"measurement": "alanine transaminase (ALT) level", "setting": "[4]; TAA treated mice, blood", "value": "Neither AICAR nor THC ameliorated these markers"}, {"measurement": "aspartate aminotransferase (AST) level", "setting": "[4]; TAA treated mice, blood", "value": "Neither AICAR nor THC ameliorated these markers"}, {"measurement": "ammonia level", "setting": "[4]; TAA treated mice, blood plasma", "value": "no effect"}, {"measurement": "bilirubin level", "setting": "[4]; TAA treated mice, blood plasma", "value": "Neither AICAR nor THC ameliorated these markers"}, {"measurement": "gamma-glutamyltransferase (GGT) level", "setting": "[4]; TAA treated mice, blood plasma", "value": "Neither AICAR nor THC ameliorated these markers"}, {"measurement": "brain dopamine concentration", "setting": "[7]", "value": "restored levels to normal"}]}, {"compound": "CCCCCCC(C)(C)c1cc(OC)c([C@@H]2C=C(CO)[C@@H]3C[C@H]2C3(C)C)c(OC)c1", "note": "[HU-308]", "values": [{"measurement": "Inflammation (frequency of cells in the liver)", "setting": "[1]", "value": "reduced; also recorded: Decreased"}, {"measurement": "Regeneration (frequency of cells in the liver)", "setting": "[1]", "value": "Increased"}, {"measurement": "astrogliosis, direction of change (GFAP staining, hippocampus)", "setting": "[8]", "value": "prevented; also recorded: Decrease (p < 0.001)"}, {"measurement": "alanine transaminase (ALT) level", "setting": "[4]; TAA treated mice, blood", "value": "significantly reduced"}, {"measurement": "aspartate aminotransferase (AST) level", "setting": "[4]; TAA treated mice, blood", "value": "significantly reduced"}, {"measurement": "influence of the co-administered agent on the other agent's reduction of ALT and AST levels", "setting": "[4]; TAA treated mice, co-administration", "value": "did not counteract the effect of SR144528"}]}, {"compound": "Cc1c(C(=O)NN2CCCCC2)nn(-c2ccc(Cl)cc2Cl)c1-c1ccc(Cl)cc1", "note": "[SR141716A]", "values": [{"measurement": "Inflammation (frequency of cells in the liver)", "setting": "[1]", "value": "reduced; also recorded: Decreased"}, {"measurement": "Regeneration (frequency of cells in the liver)", "setting": "[1]", "value": "Increased"}, {"measurement": "astrogliosis, direction of change (GFAP staining, hippocampus)", "setting": "[8]", "value": "prevented; also recorded: Decrease (p < 0.001)"}, {"measurement": "alanine transaminase (ALT) level", "setting": "[4]; mouse, in vivo", "value": "significantly reduced"}, {"measurement": "aspartate aminotransferase (AST) level", "setting": "[4]; mouse, in vivo", "value": "significantly reduced"}, {"measurement": "AST level", "setting": "[5]", "value": "effective in reducing its level"}, {"measurement": "influence of co-administration on the ALT effect of 2-AG", "setting": "[5]; 2-AG + SR141716A", "value": "blocked the effect of 2-AG"}, {"measurement": "influence of co-administration on the AST effect of 2-AG", "setting": "[5]; 2-AG + SR141716A", "value": "abolished the effect of 2-AG"}]}, {"compound": "CCCCCc1cc(O)c2c(c1)OC(C)(C)[C@@H]1CCC(C)=C[C@@H]21", "note": "[THC, (−)-(6aR,10aR)-6,6,9-trimethyl-3-pentyl-6a,7,8,10a-tetrahydro-6H-benzo[c]chromen-1-ol]", "values": [{"measurement": "hippocampal AMPK phosphorylation (activated AMPK)", "setting": "[6]; TAA treated mice, 0.01 mg/kg THC", "value": "inactivating effect"}, {"measurement": "AMPK activation in brain at end of behavioral studies", "setting": "[6]; TAA treated mice, 0.1 mg/kg THC daily for 5 days, 0.1 mg/kg", "value": "activates AMPK; also recorded: Amplification of AMPK activation"}, {"measurement": "hippocampal AMPK phosphorylation (activated AMPK)", "setting": "[6]; TAA treated mice, 0.1 mg/kg THC, 0.1 mg/kg", "value": "AMPK activation was achieved; also recorded: augmented AMPK activation"}, {"measurement": "quantity of THC required to activate AMPK", "setting": "[6]; experimental hepatic encephalopathy animals", "value": 0.1, "unit": "mg/kg"}, {"measurement": "hippocampal AMPK phosphorylation (activated AMPK)", "setting": "[9]; higher concentrations of THC (up to 10 mg/kg)", "value": "dose dependent elevation in activated enzyme"}, {"measurement": "hippocampal AMPK phosphorylation (activated AMPK)", "setting": "[9]; low levels of THC (less than 0.1 mg/kg)", "value": "reduced the level of activated AMPK"}, {"measurement": "quantity of THC required to activate AMPK", "setting": "[9]; healthy animals", "value": 10, "unit": "mg/kg"}, {"measurement": "neurological score", "setting": "[10]", "value": "improved"}, {"measurement": "alanine transaminase (ALT) level", "setting": "[4]; mouse, in vivo", "value": "Neither AICAR nor THC ameliorated these markers"}, {"measurement": "ammonia level", "setting": "[4]; mouse, in vivo", "value": "no effect"}, {"measurement": "aspartate aminotransferase (AST) level", "setting": "[4]; mouse, in vivo", "value": "Neither AICAR nor THC ameliorated these markers"}, {"measurement": "bilirubin level", "setting": "[4]; mouse, in vivo", "value": "Neither AICAR nor THC ameliorated these markers"}, {"measurement": "gamma-glutamyltransferase (GGT) level", "setting": "[4]; mouse, in vivo", "value": "Neither AICAR nor THC ameliorated these markers"}, {"measurement": "TAA-induced impaired cognitive function (eight arm maze)", "setting": "[11]", "value": "improved significantly"}, {"measurement": "activity performance", "setting": "[12]", "value": "restored"}, {"measurement": "brain dopamine concentration", "setting": "[7]", "value": "restored levels to normal"}, {"measurement": "affinity to CB1 versus CB2 receptors", "setting": "[13]", "value": "about equal affinity"}]}, {"compound": "C=C(C)[C@@H]1CCC(C)=C[C@H]1c1c(O)cc(CCCCC)cc1O", "note": "[cannabidiol]", "values": [{"measurement": "IL-1β mRNA level in the hippocampus (normalized to L19 mRNA)", "setting": "[14]", "value": "restored; also recorded: reversed"}, {"measurement": "oxidative stress in the liver (malondialdehyde)", "setting": "[15]", "value": "restored; also recorded: reversed"}, {"measurement": "cognitive impairment (eight arm maze AUC)", "setting": "[2]", "value": "restored; also recorded: reversed"}, {"measurement": "motor impairment (motor activity)", "setting": "[3]", "value": "restored; also recorded: reversed"}]}, {"compound": "COc1cc(CNC(=O)CCCC/C=C/C(C)C)ccc1O", "note": "[capsaicin]", "values": [{"measurement": "Apoptosis (frequency of cells showing apoptosis/necrosis in the liver)", "setting": "[1]", "value": "amelioration of TAA-induced apoptosis/necrosis reached statistical significance; also recorded: Decreased"}, {"measurement": "Inflammation (frequency of cells in the liver)", "setting": "[1]", "value": "Decreased"}, {"measurement": "Regeneration (frequency of cells in the liver)", "setting": "[1]", "value": "significantly less hepatic regeneration; also recorded: Decreased"}, {"measurement": "neurological score", "setting": "[10]", "value": "improved; also recorded: significantly improves"}, {"measurement": "astrogliosis, direction of change (GFAP staining, hippocampus)", "setting": "[8]", "value": "prevented; also recorded: reduced astrogliosis; also recorded: minimal; also recorded: Decrease (p < 0.001)"}, {"measurement": "alanine transaminase (ALT) level", "setting": "[4]; TAA treated mice, blood", "value": "significantly reduces"}, {"measurement": "aspartate aminotransferase (AST) level", "setting": "[4]; TAA treated mice, blood", "value": "significantly reduces"}, {"measurement": "TAA-induced impaired cognitive function (eight arm maze)", "setting": "[11]", "value": "improved significantly; also recorded: significantly improves"}, {"measurement": "activity performance", "setting": "[12]", "value": "restored; also recorded: significantly improves"}]}, {"compound": "Oc1cc2c(cc1O)CN(C(=S)NCCc1ccc(Cl)cc1)CCC2", "note": "[capsazepine]", "values": [{"measurement": "influence of the co-administered agent on the other agent's reduction of ALT and AST levels", "setting": "[4]; mouse, in vivo", "value": "abolishment of the effect of capsaicin"}]}, {"compound": "SR144528", "values": [{"measurement": "Inflammation (frequency of cells in the liver)", "setting": "[1]", "value": "non-significant changes"}, {"measurement": "Regeneration (frequency of cells in the liver)", "setting": "[1]", "value": "Increased"}, {"measurement": "alanine transaminase (ALT) level", "setting": "[4]; TAA treated mice, blood", "value": "significantly reduced"}, {"measurement": "aspartate aminotransferase (AST) level", "setting": "[4]; TAA treated mice, blood", "value": "significantly reduced"}]}]}
